The record followed here is ChEMBL document CHEMBL1142784, “Discovery and in vitro evaluation of potent kinase inhibitors: Pyrido[1',2':1,5]pyrazolo[3,4-d]pyrimidines” (Bioorg Med Chem Lett, 2005).

The target in assay [1] is Glycogen synthase kinase-3 (Homo sapiens, UniProt P49840+P49841). Kind of assay: Inhibitory concentration against GSK3-beta by using [gamma-33P]-ATP as radioligand expressed in Escherichia coli in pH 7.2 for 19 min at room temperature.
In assay [2] the target is Vascular endothelial growth factor receptor (Homo sapiens, UniProt P17948+P35916+P35968). Kind of assay: Inhibitory concentration against VEGFR(10 nM) by using homogeneous time-resolved fluorescence detection in pH 7.5.
Assay [3] deals with Receptor tyrosine-protein kinase erbB-2 (Homo sapiens, UniProt P04626). Kind of assay: Inhibitory concentration against ErbB-2 protein tyrosine kinase by using [gamma-33P]-ATP as radioligand in pH 7.5.
Receptor tyrosine-protein kinase erbB-2, sequence (P04626 whole entry): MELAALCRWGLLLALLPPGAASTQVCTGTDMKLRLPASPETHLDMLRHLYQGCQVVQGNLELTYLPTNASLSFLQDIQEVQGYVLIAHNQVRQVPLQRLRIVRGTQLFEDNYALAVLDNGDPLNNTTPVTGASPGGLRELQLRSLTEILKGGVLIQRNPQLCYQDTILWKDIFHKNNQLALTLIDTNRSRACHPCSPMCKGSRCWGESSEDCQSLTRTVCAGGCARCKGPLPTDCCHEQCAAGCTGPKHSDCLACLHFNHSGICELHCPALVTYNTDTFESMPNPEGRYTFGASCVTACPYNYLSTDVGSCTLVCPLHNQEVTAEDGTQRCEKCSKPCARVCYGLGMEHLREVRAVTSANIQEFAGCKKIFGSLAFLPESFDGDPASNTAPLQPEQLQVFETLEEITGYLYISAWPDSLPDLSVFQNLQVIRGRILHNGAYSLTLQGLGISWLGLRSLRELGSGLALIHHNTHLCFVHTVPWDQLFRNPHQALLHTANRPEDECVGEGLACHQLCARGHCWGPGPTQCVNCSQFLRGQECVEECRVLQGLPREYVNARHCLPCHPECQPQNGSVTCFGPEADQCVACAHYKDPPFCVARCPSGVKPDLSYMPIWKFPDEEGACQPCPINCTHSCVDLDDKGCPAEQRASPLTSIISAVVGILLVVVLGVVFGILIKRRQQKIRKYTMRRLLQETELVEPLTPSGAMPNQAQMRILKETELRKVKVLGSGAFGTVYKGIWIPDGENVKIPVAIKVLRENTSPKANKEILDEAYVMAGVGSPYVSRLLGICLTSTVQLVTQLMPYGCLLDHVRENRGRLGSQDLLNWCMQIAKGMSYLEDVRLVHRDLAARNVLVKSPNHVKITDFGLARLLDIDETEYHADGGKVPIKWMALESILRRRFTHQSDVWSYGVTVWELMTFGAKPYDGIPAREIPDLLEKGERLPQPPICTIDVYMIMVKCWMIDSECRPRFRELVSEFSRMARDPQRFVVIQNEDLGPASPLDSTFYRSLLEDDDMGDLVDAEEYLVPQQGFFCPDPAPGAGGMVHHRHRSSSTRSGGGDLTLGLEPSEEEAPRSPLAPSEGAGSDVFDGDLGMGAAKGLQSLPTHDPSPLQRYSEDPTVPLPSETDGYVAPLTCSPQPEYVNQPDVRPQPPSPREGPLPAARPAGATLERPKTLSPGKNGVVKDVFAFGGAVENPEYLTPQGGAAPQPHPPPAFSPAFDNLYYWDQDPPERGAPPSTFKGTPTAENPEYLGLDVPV
Assay [4] deals with Epidermal growth factor receptor (Homo sapiens, UniProt P00533). Kind of assay: Inhibitory concentration against EGFR by using [gamma-33P]-ATP as radioligand in pH 7.5.
Epidermal growth factor receptor, sequence (P00533 whole entry): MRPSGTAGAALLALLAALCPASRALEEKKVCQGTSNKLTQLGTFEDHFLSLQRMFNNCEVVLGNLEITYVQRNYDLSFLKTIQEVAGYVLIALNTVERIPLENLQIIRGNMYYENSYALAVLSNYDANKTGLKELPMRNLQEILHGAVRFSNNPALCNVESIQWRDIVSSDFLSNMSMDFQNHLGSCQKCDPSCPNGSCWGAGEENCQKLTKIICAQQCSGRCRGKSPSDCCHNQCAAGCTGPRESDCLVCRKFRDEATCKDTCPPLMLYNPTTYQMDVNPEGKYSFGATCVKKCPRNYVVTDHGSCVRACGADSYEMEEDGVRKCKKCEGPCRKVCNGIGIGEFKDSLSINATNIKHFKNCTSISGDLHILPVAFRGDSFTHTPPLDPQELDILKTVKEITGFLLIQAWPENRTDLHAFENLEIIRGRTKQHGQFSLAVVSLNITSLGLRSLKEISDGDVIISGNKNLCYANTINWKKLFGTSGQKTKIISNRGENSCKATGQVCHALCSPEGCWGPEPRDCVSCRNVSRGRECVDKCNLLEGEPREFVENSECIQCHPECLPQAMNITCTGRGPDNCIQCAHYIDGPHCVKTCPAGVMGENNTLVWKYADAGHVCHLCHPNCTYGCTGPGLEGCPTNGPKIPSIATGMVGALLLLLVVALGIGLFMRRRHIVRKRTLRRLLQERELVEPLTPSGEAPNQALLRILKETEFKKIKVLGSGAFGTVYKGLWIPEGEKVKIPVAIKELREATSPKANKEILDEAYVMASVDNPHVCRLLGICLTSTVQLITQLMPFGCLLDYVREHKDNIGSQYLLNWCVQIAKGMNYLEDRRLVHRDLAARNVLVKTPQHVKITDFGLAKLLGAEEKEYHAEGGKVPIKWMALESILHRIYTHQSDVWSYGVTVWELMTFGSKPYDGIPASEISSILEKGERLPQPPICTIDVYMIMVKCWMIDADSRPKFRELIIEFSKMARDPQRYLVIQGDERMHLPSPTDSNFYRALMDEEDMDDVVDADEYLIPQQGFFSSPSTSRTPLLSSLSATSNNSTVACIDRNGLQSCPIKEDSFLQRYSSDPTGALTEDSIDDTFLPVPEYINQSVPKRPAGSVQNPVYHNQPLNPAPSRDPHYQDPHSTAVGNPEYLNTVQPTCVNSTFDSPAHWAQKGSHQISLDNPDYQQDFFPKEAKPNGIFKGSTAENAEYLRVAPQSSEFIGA

A word on the IC50: it is the concentration at which inhibition is half-maximal. High values mean weaker potency in that assay, low ones greater potency in that assay.

In the case of `O=C(Nc1ccc(F)cc1)Nc1ncnc2nn3ccccc3c12`, the IC50 in assay [1] was over 10 µM; in assay [2], 0.631 µM.
With `Nc1ncnc2nn3ccccc3c12`, the IC50 in assay [3] and in assay [4] was over 10 µM in each case.
Turning to `O=C(Nc1cccc([N+](=O)[O-])c1)Nc1ncnc2nn3ccccc3c12`, the IC50 was 0.316 µM in assay [1] and over 10 µM in assay [2].
On to `Clc1cc(Nc2ncnc3nn4ccccc4c23)ccc1OCc1ccccc1`, for which the values for the IC50 in assay [3] and in assay [4] were 0.2 µM and 0.05 µM, respectively.
For the compound `O=C(Nc1ccc(Br)cc1)Nc1ncnc2nn3ccccc3c12`, the figures for the IC50 in assay [1] and in assay [2] were 1 µM and 3.98 µM, respectively.
For `N#Cc1cccc(NC(=O)Nc2ncnc3nn4ccccc4c23)c1` the same measures were 0.126 µM and 0.2 µM.
In the same order, the values of `O=C(Nc1cccc(C(F)(F)F)c1)Nc1ncnc2nn3ccccc3c12` are 0.158 µM and 0.251 µM.
For the compound `O=C(Nc1ccc(C(F)(F)F)cc1)Nc1ncnc2nn3ccccc3c12`, the IC50 was found to be 1.58 µM in assay [1] and 3.98 µM in assay [2].
For `c1ccc(Cc2nc3ccc(Nc4ncnc5nn6ccccc6c45)cc3[nH]2)cc1`, the concentration for half-maximal inhibition (IC50) in assay [3] was 1.58 µM; in assay [4], 5.01 µM.
